In US12064445B2, “Cytarabine conjugates for cancer therapy” (Biosight Ltd., priority 2015, dated 2024):
Like-named read-outs stand apart in the source and are kept apart here.

Key:
[1] = tested on: CCRF-CEM cells; experiment: Human leukemia hollow fiber model transplanted in nude mice (CCRF-CEM); assay type: in vivo; settings: 1.5 mg/mouse/day, 7 consecutive days
Protocol: (§1) Next, the efficacy of Astarabine® in vivo was studied on a human leukemia (Molt-4 and CCRF-CEM cells) hollow fiber model transplanted in nude mice. Astarabine® was injected at doses of 6.25 mg/mouse/day and 25 mg/mouse/day intraperitoneally (IP), daily, for 7 consecutive days; cytarabine was injected at a dose of 1.5 mg/mouse/day. Leukemia cell growth was measured using the MTT assay as described in Example 1 herein above.

[2] = tested on: HepG2 (Human hepatocellular carcinoma); settings: Grove et al., Cancer Res. 1995, read-out: Cytarabine in literature (IC50); cited from earlier work
[3] = tested on: RPMI8226 (Human myeloma); experiment: MTT assay, IC50 in tumor cell lines; assay type: cell-based; settings: RPMI-8226, RPMI8226, 72 hr
Protocol: The effect of Astarabine® on different cell lines was evaluated. Briefly, various cell lines were obtained from ATCC or ECACC. Hematological cells were grown in RPMI medium containing 10-20% FBS and 1% glutamine. Solid tumor cells were grown in DMEM medium containing 10-20% FBS and 1% glutamine. Cells were seeded into 96-well plates, 50,000 cells/ml, 0.2 ml per well. […] The study was conducted in triplicates, PBS was used as control. Plates were incubated for 72 hr at 37° C., 5% CO2. At the end of the exposure period, a MTT assay using the MTT reagent [3-(4,5-dimethylthiazol-2-yl)-2,5-diphenyltetrazolium bromide] was performed. MTT was added to each well at a concentration of 5 mg/ml in a volume of 0.02 ml. Plates were incubated at 37° C. for 3 h. The plates were centrifuged at 3500 rpm for 5 minutes and the supernatant was aspired. The pellets which contained MTT crystals were each dissolved in 0.2 ml DMSO. Absorbance was determined using ELISA reader at a wavelength of 570 nm.

[4] = tested on: HL-60 (Human promyelocytic leukemia); experiment: MTT assay, IC50 in tumor cell lines; assay type: cell-based; settings: HL-60, 72 hr
Protocol: (§2) The effect of Astarabine® on different cell lines was evaluated. Briefly, various cell lines were obtained from ATCC or ECACC. Hematological cells were grown in RPMI medium containing 10-20% FBS and 1% glutamine. Solid tumor cells were grown in DMEM medium containing 10-20% FBS and 1% glutamine. Cells were seeded into 96-well plates, 50,000 cells/ml, 0.2 ml per well. Test substances were diluted in saline or PBS and added in final concentrations of 0.1 nM to 10 μM, in a volume of 20 μl. The study was conducted in triplicates, PBS was used as control. Plates were incubated for 72 hr at 37° C., 5% CO2. At the end of the exposure period, a MTT assay using the MTT reagent [3-(4,5-dimethylthiazol-2-yl)-2,5-diphenyltetrazolium bromide] was performed. MTT was added to each well at a concentration of 5 mg/ml in a volume of 0.02 ml. Plates were incubated at 37° C. for 3 h. The plates were centrifuged at 3500 rpm for 5 minutes and the supernatant was aspired. The pellets which contained MTT crystals were each dissolved in 0.2 ml DMSO. Absorbance was determined using ELISA reader at a wavelength of 570 nm.

[5] = tested on: Molt-4 (Human acute lymphoblastic leukemia); experiment: MTT assay, IC50 in tumor cell lines; assay type: cell-based; settings: Molt-4, 72 hr
Protocol: as §2

[6] = tested on: P388.D1 (Mouse lymphoid macrophage); experiment: MTT assay, IC50 in tumor cell lines; assay type: cell-based; settings: P388D1, P388.D1, 72 hr
Protocol: as §2

[7] = tested on: NCIH727 (Human lung non small cell carcinoma); experiment: MTT assay, IC50 in tumor cell lines; assay type: cell-based; settings: NCI-H727, NCIH727, 72 hr
Protocol: as §2

[8] = tested on: SU DHL-1 (Human large cell lymphoma); experiment: MTT assay, IC50 in tumor cell lines; assay type: cell-based; settings: SU DHL-1, 72 hr
Protocol: as §2

[9] = tested on: CCRF-SB (Human acute lymphoblastic leukemia); experiment: MTT assay, IC50 in tumor cell lines; assay type: cell-based; settings: 72 hr
Protocol: as §2

[10] = tested on: L1210 (Mouse DBA/2 lymphocytic leukemia); experiment: MTT assay, IC50 in tumor cell lines; assay type: cell-based; settings: L1210, 72 hr
Protocol: as §2

[11] = tested on: CCRF-CEM (Human acute lymphoblastic leukemia T lympoblastoid line); experiment: MTT assay, IC50 in tumor cell lines; assay type: cell-based; settings: 72 hr
Protocol: as §2

[12] = tested on: A2780 (Human ovarian carcinoma); experiment: MTT assay, IC50 in tumor cell lines; assay type: cell-based; settings: A2780, 72 hr
Protocol: as §2

[13] = tested on: THP-1 (Human monocytic leukemia); experiment: MTT assay, IC50 in tumor cell lines; assay type: cell-based; settings: THP-1, 72 hr
Protocol: as §2

[14] = tested on: RS 4:11 (Human acute lymphoblastic leukemia); experiment: MTT assay, IC50 in tumor cell lines; assay type: cell-based; settings: RS4-11, RS 4:11, 72 hr
Protocol: as §2

[15] = tested on: SU DHL-5 (Human B-cell non Hodgkin's lymphoma); experiment: MTT assay, IC50 in tumor cell lines; assay type: cell-based; settings: SU DHL-5, 72 hr
Protocol: as §2

[16] = tested on: HepG2 (Human hepatocellular carcinoma); experiment: MTT assay, IC50 in tumor cell lines; assay type: cell-based; settings: HepG2, 72 hr
Protocol: as §2

[17] = tested on: MEG 01 (Human chronic myelogenous leukemia); experiment: MTT assay, IC50 in tumor cell lines; assay type: cell-based; settings: MEG 01, 72 hr
Protocol: as §2

[18] = tested on: K562 (Human chronic myelogenous leukemia); experiment: MTT assay, IC50 in tumor cell lines; assay type: cell-based; settings: K562, 72 hr
Protocol: as §2

[19] = tested on: L1210 (Mouse DBA/2 lymphocytic leukemia); settings: Breistol et al., Cancer Res. 1999, read-out: Cytarabine in literature (IC50); cited from earlier work
[20] = tested on: HL-60 (Human promyelocytic leukemia); settings: Qin et al., Clin. Cancer Res. 2007, read-out: Cytarabine in literature (IC50); cited from earlier work
[21] = tested on: A2780 (Human ovarian carcinoma); settings: Ruiz Van Haperen, Cancer Res. 1994, read-out: Cytarabine in literature (IC50); cited from earlier work
[22] = tested on: Molt-4 cells; experiment: Human leukemia hollow fiber model transplanted in nude mice (Molt-4); assay type: in vivo; settings: 1.5 mg/mouse/day, 7 consecutive days
Protocol: as §1

[23] = tested on: Molt-4 (Human acute lymphoblastic leukemia); settings: Ogbomo et al., Neoplasia 2008, read-out: Cytarabine in literature (IC50); cited from earlier work
[24] = tested on: CCRF-SB (Human acute lymphoblastic leukemia); settings: Manfredini et al., Bioorg. Med. Chem. 2000, read-out: Cytarabine in literature (IC50); cited from earlier work
[25] = tested on: CCRF-CEM (Human acute lymphoblastic leukemia T lympoblastoid line); settings: Manfredini et al., Bioorg. Med. Chem. 2000, read-out: Cytarabine in literature (IC50); cited from earlier work

Nc1ccn([C@@H]2O[C@H](CO)[C@@H](O)[C@@H]2O)c(=O)n1 [cytarabine, cytosine arabinoside]
Inhibition of growth of CCRF-CEM cells [1]: 73.3% | IC50 [2]: 185 ± 240 nM | IC50 [3]: 9700 to 63000 nM | IC50 [4]: 49.6 to 165 nM | IC50 [5]: 1.1 to 12.3 nM | IC50 [6]: 600 to 900 nM | IC50 [7]: 590 to 770 nM | IC50 [8]: 124 to 524 nM | IC50 [9]: 1900 to 3100 nM | IC50 [10]: 12.2 to 16.4 nM | IC50 [11]: 3.1 to 25.2 nM | IC50 [12]: 72 to 114 nM | IC50 [13]: 2300 to 5500 nM | IC50 [14]: 26.4 nM | IC50 [15]: 323 nM | IC50 [16]: 980 to 1160 nM | IC50 [17]: 1200 to 5600 nM | IC50 [18]: 46.1 to 381 nM | IC50 [19]: 40 ± 9 nM | IC50 [20]: 37 ± 6.1 nM | IC50 [21]: 14 ± 4 nM | Inhibition of growth of Molt-4 cells [22]: 81.1% | IC50 [23]: 29 ± 1.8 nM | IC50 [24]: 4200 nM | IC50 [25]: 30 nM
